Test systems include CAKI-1 renal; CCRF-CEM leukemia; HCC-2998 colon; HCT-15 colon; NCI-H226 lung; OVCAR-4 ovarian; RPMI-8226 leukemia; SF-268 CNS; SK-MEL-28 melanoma; SR leukemia.
What all share (test): NCI-60 cell line screen, 48 h

Structures are written as SMILES. “And” between values parts separate entries of the source, which are not always exact repeats. Equal entries are not always repeated.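 Tested at 5 concentrations; 48 h exposure; 96-well plates; endpoints linearly interpolated, else capped at highest concentration. GI50 is the concentration that inhibits growth by half. TGI: total growth inhibition.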

For `C=C1COC(O)(C2OCOC(C3CC(=O)NC(=O)C3)C2O)C1C` (stereo not given), the GI50 is 3.94 nM and 19 nM in the experiment with CAKI-1 renal; 2.18 nM in the experiment with HCC-2998 colon; 3.63 nM and 12.7 nM in the experiment on HCT-15 colon; 3.56 nM with NCI-H226 lung; 2.36 nM in the experiment on RPMI-8226 leukemia; 5.77 nM in the experiment with SF-268 CNS. The GI50 with SK-MEL-28 melanoma is 2.22 nM. Also, the TGI in the experiment with CCRF-CEM leukemia was 7.44 nM; with HCC-2998 colon, 17.4 nM and 24.4 nM; in the experiment with NCI-H226 lung, 19 nM and 21.6 nM; in the experiment on OVCAR-4 ovarian, 18.1 nM and 24.2 nM; in the experiment on RPMI-8226 leukemia, 6.3 nM and 12.7 nM and 45.1 nM; in the experiment with SF-268 CNS it was 42.3 nM and 33 nM. For the same compound, the TGI with SK-MEL-28 melanoma was 37.7 nM; in the experiment with SR leukemia, 8.41 nM.

These data come from PubChem BioAssay (NCI).
